Test results taken from article PMC12472749, “Balsalazide-Derived Heterotriaryls as Sirtuin 5 Inhibitors: A Case Study of a Reversible Covalent Inhibition Strategy” (Molecules, 2025).
Where “and” joins values, the source holds several entries; their conditions need not be identical. Equal entries are not always repeated. Where two headings read alike, the source gives them in different places.

Legend:
[1] = target: T1, hSirt5 (Homo sapiens, UniProt Q9NXA8); assay: fluorescence-based sirtuin 5 assay (Reaction Biology) with substrate Ac-Lys-succ-AMC and NAD+; type: biochemical; conditions: recombinant sirtuin 5 aa 37-310, 50 µM Ac-Lys-succ-AMC, 10-dose 3-fold dilution, mean of three measurements; read-out: IC50 (hSirt5) [µM] ± SD
T1 construct: comprised amino acids 37–310 (C-terminal region); His-tag (N); purchased Reaction Biology Corporation (Malvern, PA, USA); host or cells: Escherichia coli
T1 sequence (Q9NXA8 37-310): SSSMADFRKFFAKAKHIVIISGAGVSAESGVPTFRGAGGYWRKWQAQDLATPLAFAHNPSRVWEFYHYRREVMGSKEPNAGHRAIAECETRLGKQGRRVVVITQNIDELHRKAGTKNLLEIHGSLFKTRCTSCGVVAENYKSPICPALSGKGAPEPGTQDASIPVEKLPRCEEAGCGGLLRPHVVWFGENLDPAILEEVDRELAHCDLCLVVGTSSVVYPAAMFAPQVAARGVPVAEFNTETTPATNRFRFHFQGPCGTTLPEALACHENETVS
Procedure: The synthesized cyclic boronate, cyanomethyl and formylmethyl derivatives of CG_209 and CG_220 were tested for their inhibitory effects against sirtuin 5 using a fluorescence-based assay utilizing a 7-amino-4-methyl coumarin-based succinylated lysine as its substrate. The IC50 values of these compounds were calculated as a mean of three measurements (Table 2). […] Significant loss in the potency of the boronates 51–54 could be observed compared to their lead structures CG_209 and CG_220.
The inhibitory activities of the synthesized target compounds were determined by Reaction Biology Corporation (Malvern, PA, USA) using a fluorescence-based assay. The sirtuin 5 enzyme utilized in this assay was produced in-house by Reaction Biology. The enzyme construct (accession number: NM_012241) comprised amino acids 37–310 (C-terminal region), carried an N-terminal His-tag and was expressed in Escherichia coli. The recombinant protein was purified to >95% purity, as confirmed by SDS-PAGE, and supplied in a solution containing 50 mM Tris-HCl (pH 8.0), 137 mM NaCl, 2.7 mM KCl, 1 mM MgCl2, 1 mg/mL BSA, and 1% DMSO with a protein concentration of 19 nM. Test compounds were prepared at a concentration of 10 mM in DMSO and incubated with 5 µL sirtuin 5 in the assay buffer per well at 30 °C for 10 min in a concentration range between 5 nM and 0.1 mM. 5 µL assay buffer without sirtuin 5 were used for control wells. The deacylation reaction was initiated by the addition of 5 µL substrate mixture comprising 50 µM fluorogenic substrate Ac-Lys-succ-AMC and the co-factor NAD^+. After a 2 h incubation at 30 °C, the reaction was terminated by adding 10 µL protease-based developer with 4 mM nicotinamide, which cleaves 7-amino-4-methylcoumarin to yield a fluorescent signal. Fluorescence was measured after an additional 1 h incubation at 30 °C, with excitation/emission wavelengths of 360/460 nm with EnVision® Plate Reader (Revvity, Waltham, MA, USA). To standardize results, a no-inhibitor control representing 100% enzyme activity was included in all assays. IC50 values for sirtuin 5 inhibition were determined in triplicate using a 10-dose, 3-fold serial dilution series. For each replicate, individual IC50 values were calculated by fitting sigmoidal dose–response curves using Prism 8.0.2 software (GraphPad Software, Boston, MA, USA). The final IC50 values are reported as the mean ± standard deviation of the triplicate measurements.

[2] = test system: sirtuin 5; conditions: cited from earlier work
[3] = Figure 1, high-throughput screening hits, read-out: IC50 (published sirtuin 5 inhibitor)
[4] = Figure 1, read-out: IC50 (published sirtuin 5 inhibitor)
[5] = published values of the lead structures, read-out: IC50 (published values of lead structures)

| Compound | IC50 [1] | other results |
| --- | --- | --- |
| N#CC[C@@H](CC(=O)O)NC(=O)c1ccc(-c2cn(-c3ccc(O)c(C(=O)O)c3)nn2)cc1 [Compound 50, (S)-5-(4-(4-((1-Carboxy-3-cyanopropan-2-yl)carbamoyl)phenyl)-1H-1,2,3-triazol-1-yl)-2-hydroxybenzoic acid] | 27 ± 9 µM | – |
| CC1(C)OC(=O)c2cc(-n3cc(-c4ccc(C5=N[C@@H](CC(=O)O)CB(O)O5)cc4)nn3)ccc2O1 [Compound 53, (R)-2-(6-(4-(1-(2,2-Dimethyl-4-oxo-4H-benzo[d][1,3]dioxin-6-yl)-1H-1,2,3-triazol-4-yl)phenyl)-2-hydroxy-3,4-dihydro-2H-1,5,2-oxazaborinin-4-yl)acetic acid] | 137 ± 63 µM | – |
| N#CC[C@@H](CC(=O)O)NC(=O)c1ccc(-c2cc(-c3ccc(O)c(C(=O)O)c3)no2)cc1 [Compound 48, (S)-5-(5-(4-((1-Carboxy-3-cyanopropan-2-yl)carbamoyl)phenyl)isoxazol-3-yl)-2-hydroxybenzoic acid] | 65 ± 15 µM | – |
| N#CC[C@H](CC(=O)O)NC(=O)c1ccc(-c2cc(-c3ccc(O)c(C(=O)O)c3)no2)cc1 [Compound 47, (R)-5-(5-(4-((1-Carboxy-3-cyanopropan-2-yl)carbamoyl)phenyl)isoxazol-3-yl)-2-hydroxybenzoic acid] | 97 ± 22 µM | – |
| C=C1c2cccc(O)c2C(=O)C2=C(O)[C@]3(O)C(=O)C(C(N)=O)=C(O)[C@@H](N(C)C)[C@@H]3[C@@H](O)[C@H]12 [Methacycline, methacycline] | – | IC50 [2, 3]: 3.6 µM |
| N#CC[C@H](CC(=O)O)NC(=O)c1ccc(-c2cn(-c3ccc(O)c(C(=O)O)c3)nn2)cc1 [Compound 49, (R)-5-(4-(4-((1-Carboxy-3-cyanopropan-2-yl)carbamoyl)phenyl)-1H-1,2,3-triazol-1-yl)-2-hydroxybenzoic acid] | 35 ± 6 µM | – |
| O=CCC(CC(=O)O)NC(=O)c1ccc(-c2cn(-c3ccc(O)c(C(=O)O)c3)nn2)cc1 (stereo not drawn) [Compound 64, 5-(4-(4-((1-Carboxy-4-oxobutan-2-yl)carbamoyl)phenyl)-1H-1,2,3-triazol-1-yl)-2-hydroxybenzoic acid] | 60 ± 15 µM | – |
| O=CCC(CC(=O)O)NC(=O)c1ccc(-c2cc(-c3ccc(O)c(C(=O)O)c3)no2)cc1 (stereo not drawn) [Compound 61, 5-(5-(4-((1-Carboxy-4-oxobutan-2-yl)carbamoyl)phenyl)isoxazol-3-yl)-2-hydroxybenzoic acid] | 82 ± 3 µM | – |
| CC1(C)OC(=O)c2cc(-c3cc(-c4ccc(C5=N[C@@H](CC(=O)O)CB(O)O5)cc4)on3)ccc2O1 [Compound 51, (R)-2-(6-(4-(3-(2,2-Dimethyl-4-oxo-4H-benzo[d][1,3]dioxin-6-yl)isoxazol-5-yl)phenyl)-2-hydroxy-3,4-dihydro-2H-1,5,2-oxazaborinin-4-yl)acetic acid] | 203 ± 50 µM | – |
| O=c1[nH]c(=S)[nH]c(-c2ccccc2)c1Cc1c(O)ccc2ccccc12 [Cambinol, cambinol] | – | IC50 [2, 4]: 43 µM |
| O=C1Nc2ccc(I)cc2/C1=C/c1cc(Br)c(O)c(Br)c1 [GW5074] | – | IC50 [2, 4]: 20 µM |
| CC1(C)OC(=O)c2cc(-n3cc(-c4ccc(C5=N[C@H](CC(=O)O)CB(O)O5)cc4)nn3)ccc2O1 [Compound 54, (S)-2-(6-(4-(1-(2,2-Dimethyl-4-oxo-4H-benzo[d][1,3]dioxin-6-yl)-1H-1,2,3-triazol-4-yl)phenyl)-2-hydroxy-3,4-dihydro-2H-1,5,2-oxazaborinin-4-yl)acetic acid] | 61 ± 9 µM | – |
| O=C1c2c(O)cccc2Cc2cccc(O)c21 [Anthralin, anthralin] | – | IC50 [2, 3]: 0.1 µM |
| C=CCN1C(=O)/C(=C\c2ccc(-c3cccc(Cl)c3Cl)o2)C(=O)NC1=S [Maurer compound 2] | – | IC50 [2, 4]: 2.3 µM |
| O=C(O)CCNC(=O)c1ccc(-c2cn(-c3ccc(O)c(C(=O)O)c3)nn2)cc1 [CG_220] | 9 ± 2 µM | IC50 [2, 5]: 7 µM and 7.4 µM |
| O=C(O)CCNC(=O)c1ccc(-c2cc(-c3ccc(O)c(C(=O)O)c3)no2)cc1 [CG_209] | 11 ± 1 µM | IC50 [2, 5]: 12 µM |
| CC1(C)OC(=O)c2cc(-c3cc(-c4ccc(C5=N[C@H](CC(=O)O)CB(O)O5)cc4)on3)ccc2O1 [Compound 52, (S)-2-(6-(4-(3-(2,2-Dimethyl-4-oxo-4H-benzo[d][1,3]dioxin-6-yl)isoxazol-5-yl)phenyl)-2-hydroxy-3,4-dihydro-2H-1,5,2-oxazaborinin-4-yl)acetic acid] | 139 ± 18 µM | – |
| N#C/C(=C\c1ccc(-c2ccc(C(=O)O)cc2)o1)C(=O)Nc1ccc(C#N)c(F)c1 [Liu compound 37] | – | IC50 [2, 4]: 5.6 µM |
| O=C(O)CCNC(=O)c1ccc(/N=N/c2ccc(O)c(C(=O)O)c2)cc1 [Balsalazide, balsalazide] | – | IC50 [2, 3]: 3.9 µM |
